According to PMC8708666, “Screening of Self-Assembling of Collagen IV Fragments into Stable Structures Potentially Useful in Regenerative Medicine” (International Journal of Molecular Sciences, 2021):

How the values were obtained:
[1] = CD study of self-organization into structures mimicking the collagen triple helix; assay type: physicochemical; set-up: key to Ability to Mimic the Structure of the Collagen Helix: +++: peptides that were able to mimic the spatial structure of collagen at 4 °C, 20 °C and 40 °C; +: a fragment mimicking the spatial structure of collagen only at 4 °C; fragments that do not have the ability to aggregate into stable three-dimensional structures; details: CD at 4 °C, 20 °C and 40 °C after 24 h incubation; for ability to self-organize into structures mimicking the triple helix (CD): water, 0.1 mg/mL
Source text: The next stage of the research was to check whether peptides 1–33 and 2.1–2.4 have the ability to self-organize, enabling the formation of structures mimicking the structure of the triple helix characteristic of collagens, including the COL domain of type IV collagen. The method of circular dichroism was used in the research, allowing both the secondary and tertiary structure of peptides and proteins to be determined. This method can also be successfully used to observe the process of protein self-organization depending on the temperature or pH. […] A characteristic feature of triple helix collagens is the maximum at about 220 nm and the minimum at about 190–200 nm. Based on literature data, the CD spectrum corresponding to the triple helix characteristic of collagens as a function of temperature was simulated (Figure 9j). The main factors stabilizing the collagen triple helix are the hydrogen bonds between the hydrogen atom of the amino group and the oxygen atom of the carbonyl group. These are relatively weak bonds, and their stability depends, inter alia, on temperature. Therefore, the stability of the collagen triple helix changes with the change of this factor. Due to the fact that the studied collagen fragments can be potentially used in regenerative medicine, it was necessary to check the stability of the structure in the temperature range as close as possible to physiological conditions. Therefore, the tests were performed at 4 °C, 20 °C and 40 °C after incubation for 24 h. The incubation process was to enable the self-assembly to form structures that mimic the triple helix of collagen. […] In the spectra, the presence of a characteristic maximum at a wavelength of about 220 nm and a minimum at about 190–200 nm was observed. However, the most important fact is that these peptides formed stable three-dimensional structures even at 40 °C.
The CD spectra were recorded using a Jasco J-1500 instrument (Jasco, Cracow, Poland) and quartz cuvettes with 1 mm optical path lengths. The measurements were acquired in the range of 190–270 nm at temperatures of 4 °C, 20 °C and 40 °C by taking points every 5 nm, with a scan rate of 100 nm per min, an integration time of 1 s, and a bandwidth of 4 nm. The samples were prepared in MiliQ purity water with a final concentration of 0.1 mg/mL. Samples before CD measurements were incubated for 24 h. at 4 °C, 20 °C and 40 °C using a Lauda thermostat.

[2] = Microscopic examination of peptide aggregates stained with Congo Red; assay type: physicochemical; details: phosphate buffer pH 7.2, 37.5 °C, 7 days
Protocol: In addition to CD studies, microscopic studies of peptides 1–33 and 2.1–2.4 stained with Congo Red were also performed. This method of visualization of peptide aggregates is a typical method of studying β-sheet structures in amyloid-type fibers.
In order to initiate aggregation, peptides were dissolved in a phosphate buffer solution of pH 7.2 and a concentration of 250 μM (approx. […] of peptide per 1 mL of solution) and incubated at 37.5 °C for 7 days.
Congo Red solution with a concentration of […] was prepared by dissolving the dye (Sigma-Aldrich) (17.42 mg; 0.025 mmol) in phosphate buffer (pH = 7.2) (10 mL) with the following composition: 100 mM NaH2PO4/Na2HPO4, 137 mM NaCl and 10% EtOH. Ethyl alcohol was added to the buffer to counteract the formation of dye micelles. A sample for microscopic analysis (peptide solution) was centrifuged at 12,000–14,000 rpm to precipitate. In the next step, the solution was decanted and the residue was washed three times with water to remove excess dye. Then, a suspension of the peptide in water was applied to a microscope slide. The samples were dried in a stream of air at room temperature and analyzed under polarized light.
The obtained structures were analyzed using a Delta Optical Genetic Pro (Warsaw, Poland) light microscope.

[3] = target: α1β1 integrin (ITGα1β1) (Homo sapiens, UniProt P05556+P56199); test: MST determination of Kd for labeled α1β1 integrin and collagen IV fragments; assay type: binding
Sequence of α1β1 integrin (ITGα1β1) (P56199 29-1141 limits assumed): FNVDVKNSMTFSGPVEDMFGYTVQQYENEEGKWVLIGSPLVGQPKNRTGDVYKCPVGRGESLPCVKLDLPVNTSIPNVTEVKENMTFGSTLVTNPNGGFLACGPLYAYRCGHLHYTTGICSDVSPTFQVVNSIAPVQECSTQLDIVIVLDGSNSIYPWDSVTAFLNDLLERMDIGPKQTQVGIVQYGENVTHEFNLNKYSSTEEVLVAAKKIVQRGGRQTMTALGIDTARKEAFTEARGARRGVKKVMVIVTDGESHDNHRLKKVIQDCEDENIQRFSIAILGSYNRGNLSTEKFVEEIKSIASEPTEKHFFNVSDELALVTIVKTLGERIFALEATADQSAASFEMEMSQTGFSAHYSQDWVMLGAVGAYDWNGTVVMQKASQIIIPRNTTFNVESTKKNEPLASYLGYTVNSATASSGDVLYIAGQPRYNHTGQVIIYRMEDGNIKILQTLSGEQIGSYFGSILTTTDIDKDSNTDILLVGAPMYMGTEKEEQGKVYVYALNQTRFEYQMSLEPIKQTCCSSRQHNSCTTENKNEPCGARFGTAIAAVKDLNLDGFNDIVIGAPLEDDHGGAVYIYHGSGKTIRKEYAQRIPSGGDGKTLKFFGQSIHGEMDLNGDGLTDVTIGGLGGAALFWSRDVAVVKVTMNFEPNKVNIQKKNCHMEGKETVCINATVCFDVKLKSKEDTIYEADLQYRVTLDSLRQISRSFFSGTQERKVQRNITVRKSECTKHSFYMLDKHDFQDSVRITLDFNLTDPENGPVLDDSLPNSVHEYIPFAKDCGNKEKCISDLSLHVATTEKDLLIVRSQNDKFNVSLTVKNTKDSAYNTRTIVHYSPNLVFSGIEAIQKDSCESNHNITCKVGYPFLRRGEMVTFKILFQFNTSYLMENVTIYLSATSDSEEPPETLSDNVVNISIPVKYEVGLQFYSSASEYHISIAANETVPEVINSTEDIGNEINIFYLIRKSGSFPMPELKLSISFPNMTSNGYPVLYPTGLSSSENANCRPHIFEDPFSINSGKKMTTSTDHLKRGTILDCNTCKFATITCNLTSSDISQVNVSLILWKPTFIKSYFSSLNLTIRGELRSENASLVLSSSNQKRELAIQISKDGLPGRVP
Sequence of α1β1 integrin (ITGα1β1) (P05556 21-728 limits assumed): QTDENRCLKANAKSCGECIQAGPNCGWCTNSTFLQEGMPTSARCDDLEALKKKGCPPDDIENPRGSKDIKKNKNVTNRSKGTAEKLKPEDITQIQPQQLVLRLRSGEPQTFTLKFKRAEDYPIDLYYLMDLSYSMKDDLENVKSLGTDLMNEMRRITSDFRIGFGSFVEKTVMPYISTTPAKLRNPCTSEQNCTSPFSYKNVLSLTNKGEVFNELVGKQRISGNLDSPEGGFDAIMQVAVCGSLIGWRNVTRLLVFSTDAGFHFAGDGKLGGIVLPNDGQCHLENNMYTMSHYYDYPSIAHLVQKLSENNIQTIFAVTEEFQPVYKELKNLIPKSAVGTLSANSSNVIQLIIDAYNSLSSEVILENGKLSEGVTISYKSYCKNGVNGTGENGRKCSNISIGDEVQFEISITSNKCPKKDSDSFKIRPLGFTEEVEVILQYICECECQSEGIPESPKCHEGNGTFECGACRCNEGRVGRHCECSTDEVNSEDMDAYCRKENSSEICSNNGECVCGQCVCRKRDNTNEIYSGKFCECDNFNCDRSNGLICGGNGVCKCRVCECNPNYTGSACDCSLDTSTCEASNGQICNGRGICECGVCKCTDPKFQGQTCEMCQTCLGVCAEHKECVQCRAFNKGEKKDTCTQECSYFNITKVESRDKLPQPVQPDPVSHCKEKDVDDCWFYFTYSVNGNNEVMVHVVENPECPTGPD
Protocol: The tests were performed using the Microscale Thermophoresis (MST) technique [86]. […] For MST experiment His-tagged ITGα1β1 was labeled using a fluorescent dye, which enable a site-specific and stable noncovalent fluorescence labeling of polyhistidine-tagged proteins. The concentrations of labeled ITGα1β1 were kept constant at 25 nM, whereas the peptides were used as titration ligands with increasing concentrations.
The α1β1 integrin concentration was kept constant (25 nM), while the non-labeled binding partner collagen IV peptides were used at increasing concentrations as the titration ligand. The MST measurement was performed at 80% or 100% (for peptide 4) LED power and medium (40%) MST power. An MST-on time 4 s was used for analysis and a Kd (µM ± µM confidence) was derived for these interactions (n ≥ 3 independent measurements, error bars represent standard deviation).
• Preparation of Materials for MST Analysis • (1) ITGα1β1—a solution with a concentration of 9.3 µM was prepared. For this, 50 µL of sterile PBS (filtered through a 0.22 µm filter) was added to the protein. […] The fluorescent dye OG488 (ex = 498 nm, ex = 526 nm) provide an efficient method for site-specific and stable noncovalent fluorescence labeling of polyhistidine-tagged proteins. • (3) A 0.05% Tween20 solution in PBS (PBST) was prepared. • Testing the Affinity of the Dye to the Protein […]

Row | Substance | ability to self-organize into structures mimicking the triple helix (CD) [1] | structure of aggregates stained with Congo Red [2] | Kd ([3]; labeled His-tagged ITGα1β1 25 nM, 22 °C, MST-on time 4 s, Kd ± confidence) | ability to bind to ITGα1β1 (in words) ([3]; labeled ITGα1β1 25 nM) | Ability to Mimic the Structure of the Collagen Helix [1]
1 | ^671PGFPGPKGSR^680 [Peptide 13] | only at 4 °C | fibrous structures | – | – | –
2 | ^891LSGPKGEKGS^900 [Peptide 20] | not found | fibrous structures resembling amyloid structures | – | – | –
3 | ^1311KGMRGEPGFM^1320 [Peptide 29] | not found | fibrous structures resembling amyloid structures | – | – | –
4 | ^1451MRVGYTLVKH^1460 [Peptide 31] | not found | fibrous structures resembling amyloid structures | – | – | –
5 | ^951PVGIPSPRRP^960 [Peptide 22] | not found | fibrous structures resembling amyloid structures | – | – | –
6 | ^41CFPEKGARGR^50 [Peptide 2] | have the ability to self-organize to form structures that mimic the structure of the triple helix | only amorphous structures | – | – | –
7 | ^641PGQQGLPGSK^650 [Peptide 12] | only at 4 °C | fibrous structures | – | – | –
8 | ^21AGEKSYGKPC^30 [Peptide 1] | not found | fibrous structures resembling amyloid structures | – | – | –
9 | ^921LKGIPGSTGK^930 [Peptide 21] | not found | fibrous structures resembling amyloid structures | – | – | –
10 | ^781PGLKGVHGKP^790 [Peptide 16] | not found | fibrous structures resembling amyloid structures | – | – | –
11 | ^1446MPGQSMRVGYTL^1457 [Peptide 2.2] | only at 4 °C | fibrous structures | – | – | –
12 | ^721LPGFPGLPGK^730 [Peptide 15] | have the ability to self-organize to form structures that mimic the structure of the triple helix | only amorphous structures | no binding | no binding | +++
13 | ^471LKGIKGDSGF^480 [Peptide 9] | not found | fibrous structures resembling amyloid structures | – | – | –
14 | ^23EKSYGKPCGGQDC^35 [Peptide 2.1] | not found | fibrous structures resembling amyloid structures | – | – | –
15 | ^1520CHYARRNDKSYW^1531 [Peptide 2.4] | only at 4 °C | fibrous structures | – | – | –
16 | ^311GPPGQQGKKG^320 [Peptide 7] | only at 4 °C | fibrous structures | – | – | –
17 | ^1101IGNIGFPGNK^1110 [Peptide 26] | have the ability to self-organize to form structures that mimic the structure of the triple helix | only amorphous structures | – | – | –
18 | ^961MSNLWLKGDK^970 [Peptide 23] | not found | fibrous structures resembling amyloid structures | – | – | –
19 | ^841PGKKGTRGKK^850 [Peptide 18] | only at 4 °C | fibrous structures | – | – | –
20 | ^711GFPGPRGEKG^720 [Peptide 14] | have the ability to self-organize to form structures that mimic the structure of the triple helix | only amorphous structures | – | – | –
21 | ^81PGLLGPYGPK^90 [Peptide 3] | not found | fibrous structures resembling amyloid structures | – | – | –
22 | ^1221PGLRGQKGDR^1230 [Peptide 28] | only at 4 °C | fibrous structures | – | – | –
23 | ^1211PGIGIGAPGK^1220 [Peptide 27] | not found | fibrous structures resembling amyloid structures | – | – | –
24 | ^821GIKGKSGLPG^830 [Peptide 17] | only at 4 °C | fibrous structures | – | – | –
25 | ^1453VGYTLVKHSQSE^1464 [Peptide 2.3] | only at 4 °C | fibrous structures | – | – | –
26 | ^1661AGQLHTRVSR^1670 [Peptide 33] | – | fibrous structures | – | – | –
27 | ^1001GAPGLPGIIK^1010 [Peptide 24] | not found | fibrous structures resembling amyloid structures | – | – | –
28 | ^1521HYARRNDKSY^1530 [Peptide 32] | not found | fibrous structures resembling amyloid structures | – | – | –
29 | ^541KGKKGEPILS^550 [Peptide 11] | not found | fibrous structures resembling amyloid structures | – | – | –
30 | ^251GFPKGKKGSK^260 [Peptide 6] | have the ability to self-organize to form structures that mimic the structure of the triple helix | only amorphous structures | – | – | –
